Laboratory results reported in patent US11542273B2, “Amide compound having bet proteolysis-inducing action and medicinal application thereof” (MITSUBISHI TANABE PHARMA CORPORATION, priority 2018, dated 2023).

Legend:
[1] = target: BRD4 protein (Homo sapiens (Human), UniProt O60885); assay: BRD4 protein degradation inducing action in cancer cells (immunofluorescence, Operetta); format: cell-based; conditions: LNCaP cells, 6 hr treatment, fluorescence intensity
Method: The degradation inducing action of the compound of the present invention on BRD4 protein in cancer cells was evaluated in vitro using human prostate cancer LNCaP cells. LNCaP cells were suspended in 10% FBS/RPMI1640, seeded in a 96 well Cell carrier plate (Perkin Elmer) and cultured at 5% CO2, 37° C. overnight. A test compound dissolved in DMSO was diluted with 10% FBS/RPMI1640 and added and the cells were further cultured for 6 hr. After culturing, the cells were immobilized with 4% para-formaldehyde/PBS and further subjected to a permeation treatment with 0.25% Triton X-100/PBS. Thereafter, the cells were blocked with 10% BSA/PBS, a solution containing Anti-Brd4 antibody (Abcam) or Anti-BRD4 (Sigma-Aldrich) as the primary antibody was added and the cells were incubated at 4° C. overnight. Thereafter, as the secondary antibody, a solution containing secondary antibody A shown below was added to Example compounds 1-190, 223 and 224, and a solution containing secondary antibody B shown below was added to Example compounds 191-222, and 0.5 μg/mL Hoechst 33342 (Sigma-Aldrich) and 14 μM Acti-Stain 555 Fluorescent Phalloidin (Cytoskeleton) were further added. After incubation for 1 hr, BRD4 protein amount was measured by Operetta (Perkin Elmer) as fluorescence intensity.
• Anti-Rabbit IgG(H+L), F(ab′)2 Fragment (Alexa Fluor 488 Conjugate) (Cell Signaling Technology), fluorescence intensity was measured at excitation: 495 nm, emission: 519 nm. Secondary Antibody B • Goat anti-Rabbit IgG(H+L) Cross-Adserbed Secondary Antibody (Alexa Fluor 546) (Thermo Fisher Scientific) fluorescence intensity was measured at excitation: 560 nm, emission: 572 nm.
The BRD4 protein degradation inducing activity of the compound of the present invention in LNCaP cells is shown in DC50 value in Table 3. The DC50 value is a concentration of the compound showing 50% fluorescence intensity when the fluorescence intensity thereof under compound untreated condition is 100%. It was calculated from the straight line connecting the fluorescence intensity at two points enclosing the 50% fluorescence intensity and the compound concentration.

[2] = system: human prostate cancer LNCaP cells; assay: Cytotoxic action on cancer cells (WST-8, 96 hr); format: cell-based; conditions: Homo sapiens, LNCaP, 96 h, read-out: LNCaP cytotoxic activity: IC50
Method: The cytotoxic action of the compound of the present invention against human cancer cells was evaluated in vitro. In this experiment, (+)-JQ1 (Nature volume 468, pages 1067-1073 (23 Dec. 2010)) known to have an inhibitory activity on the binding of BRD4 protein and a ligand therefor was used as a positive control drug. Respective cells were suspended in 10% FBS/RPMI1640, seeded in a 96 well plate and cultured at 5% CO2, 37° C. overnight. A test compound dissolved in DMSO was diluted with 10% FBS/RPMI1640 and added and the cells were further cultured for 96 hr. After culturing, the viable cell number was measured using a cell number measurement WST-8 kit (Kishida Chemical Co., Ltd.). As a control, the measurement was performed under conditions free of the test compound. The cytotoxic activity of the compound of the present invention against human prostate cancer LNCaP cells is shown in IC50 value in Table 1. […] It was calculated from the straight line connecting the cell survival rate at two points enclosing the 50% cell survival rate and the compound concentration. In addition, the cytotoxic activity against respective cancer cells of human acute myeloid leukemia MV-4-11 cell, human chronic myeloid leukemia K562 cell, human multiple myeloma MM.1S cell, human diffuse large B-cell lymphoma SU-DHL-6 cell, human T-cell leukemia Jurkat cells, human Burkitt lymphoma Raji cell, human castration-resistant prostate cancer PC-3 cell, human ovarian cancer A2780 cell, human bladder cancer 5637 cell, human breast cancer ZR-75-1 cell, human triple negative breast cancer MDA-MB-231 cell, human uterine sarcoma MES-SA cell, human gastric cancer SNU-16 cell, human non-small cell lung cancer NCI-H1975 cell, human small cell lung cancer NCI-H82 cell, human large cell lung cancer NCI-H460 cell, human colorectal cancer HCT116 cell, human glioma U-87 MG cell, human pancreatic cancer AsPC-1 cell, and human liver cancer Hep G2 cell is shown in IC50 value in Table 2.

| Structure (SMILES) | DC50 [1] [nM] | IC50 [2] [nM] |
| --- | --- | --- |
| COC(=O)C[C@@H]1N=C(c2ccc(-c3ccc(C(=O)N[C@H](C(=O)N4C[C@H](O)C[C@H]4C(=O)N[C@@H](C)c4ccc(-c5scnc5C)cc4)C(C)(C)C)s3)cc2)c2c(sc(C)c2C)-n2c(C)nnc21 [Example 141, methyl [(6S)-4-{4-[5-({(2S)-1-[(2S,4R)-4-hydroxy-2-({(1S)-1-[4-(4-methyl-1,3-thiazol-5-yl)phenyl]ethyl}carbamoyl)pyrrolidin-1-yl]-3,3-dimethyl-1-oxobutan-2-yl}carbamoyl)thiophen-2-yl]phenyl}-2,3,9-trimethyl-6H-thieno[3,2-f][1,2,4]triazolo[4,3-a][1,4]diazepin-6-yl]acetate] | 0.72 | 0.38 |
| COC(=O)C[C@@H]1N=C(c2ccc(-c3ccc4c(c3)N(CC(=O)N[C@H](C(=O)N3C[C@H](O)C[C@H]3C(=O)N[C@@H](C)c3ccc(-c5scnc5C)cc3)C(C)(C)C)C(=O)CC4)cc2)c2c(sc(C)c2C)-n2c(C)nnc21 [Example 146, methyl [(6S)-4-(4-{1-[2-({(2S)-1-[(2S,4R)-4-hydroxy-2-({(1S)-1-[4-(4-methyl-1,3-thiazol-5-yl)phenyl]ethyl}carbamoyl)pyrrolidin-1-yl]-3,3-dimethyl-1-oxobutan-2-yl}amino)-2-oxoethyl]-2-oxo-1,2,3,4-tetrahydroquinolin-7-yl}phenyl)-2,3,9-trimethyl-6H-thieno[3,2-f] [1,2,4]triazolo[4,3-a][1,4]diazepin-6-yl]acetate] | 0.46 | 0.44 |
| COC(=O)C[C@@H]1N=C(c2ccc(-c3cccc4c3CN(CC(=O)N[C@H](C(=O)N3C[C@H](O)C[C@H]3C(=O)N[C@@H](C)c3ccc(-c5scnc5C)cc3)C(C)(C)C)CC4)cc2)c2c(sc(C)c2C)-n2c(C)nnc21 [Example 147, methyl [(6S)-4-(4-{2-[2-({(2S)-1-[(2S,4R)-4-hydroxy-2-({(1S)-1-[4-(4-methyl-1,3-thiazol-5-yl)phenyl]ethyl}carbamoyl)pyrrolidin-1-yl]-3,3-dimethyl-1-oxobutan-2-yl}amino)-2-oxoethyl]-1,2,3,4-tetrahydroisoquinolin-8-yl}phenyl)-2,3,9-trimethyl-6H-thieno[3,2-f] [1,2,4]triazolo[4,3-a][1,4]diazepin-6-yl]acetate] | 0.28 | 0.34 |
| COC(=O)C[C@@H]1N=C(c2ccc(N3CCc4cc(OCC(=O)N[C@H](C(=O)N5C[C@H](O)C[C@H]5C(=O)N[C@@H](C)c5ccc(-c6scnc6C)cc5)C(C)(C)C)ccc43)cc2)c2c(sc(C)c2C)-n2c(C)nnc21 [Example 151, methyl [(6S)-4-(4-{5-[2-({(2S)-1-[(2S,4R)-4-hydroxy-2-({(1S)-1-[4-(4-methyl-1,3-thiazol-5-yl)phenyl]ethyl}carbamoyl)pyrrolidin-1-yl]-3,3-dimethyl-1-oxobutan-2-yl}amino)-2-oxoethoxy]-2,3-dihydro-1H-indol-1-yl}phenyl)-2,3,9-trimethyl-6H-thieno[3,2-f][1,2,4]triazolo[4,3-a] [1,4]diazepin-6-yl]acetate] | 0.042 | 0.058 |
| COC(=O)C[C@@H]1N=C(c2ccc(-c3ccc(OCC(=O)N[C@H](C(=O)N4C[C@H](O)C[C@H]4C(=O)N[C@@H](C)c4ccc(-c5scnc5C)cc4)C(C)(C)C)c(CO)c3)cc2)c2c(sc(C)c2C)-n2c(C)nnc21 [Example 154, methyl [(6S)-4-{3′-(hydroxymethyl)-4′-[2-({(2S)-1-[(2S,4R)-4-hydroxy-2-({(1S)-1-[4-(4-methyl-1,3-thiazol-5-yl)phenyl]ethyl}carbamoyl)pyrrolidin-1-yl]-3,3-dimethyl-1-oxobutan-2-yl}amino)-2-oxoethoxy][1,1′-biphenyl]-4-yl}-2,3,9-trimethyl-6H-thieno[3,2-f][1,2,4]triazolo[4,3-a][1,4]diazepin-6-yl]acetate] | 0.42 | 0.45 |
| COC(=O)C[C@@H]1N=C(c2ccc(N3CCc4ccc(C(=O)N[C@H](C(=O)N5C[C@H](O)C[C@H]5C(=O)N[C@@H](C)c5ccc(-c6scnc6C)cc5)C(C)(C)C)cc4C3)cc2)c2c(sc(C)c2C)-n2c(C)nnc21 [Example 161, methyl [(6S)-4-{4-[7-({(2S)-1-[(2S,4R)-4-hydroxy-2-({(1S)-1-[4-(4-methyl-1,3-thiazol-5-yl)phenyl]ethyl}carbamoyl)pyrrolidin-1-yl]-3,3-dimethyl-1-oxobutan-2-yl}carbamoyl)-3,4-dihydroisoquinolin-2(1H)-yl]phenyl}-2,3,9-trimethyl-6H-thieno[3,2-f][1,2,4]triazolo[4,3-a][1,4]diazepin-6-yl]acetate] | 0.075 | 0.22 |
| COC(=O)C[C@@H]1N=C(c2ccc(-c3ccc(O[C@H]4C[C@@H](C(=O)N[C@H](C(=O)N5C[C@H](O)C[C@H]5C(=O)N[C@@H](C)c5ccc(-c6scnc6C)cc5)C(C)(C)C)C4)nc3)cc2)c2c(sc(C)c2C)-n2c(C)nnc21 [Example 162, methyl {(6S)-4-[4-(6-{[cis-3-({(2S)-1-[(2S,4R)-4-hydroxy-2-({(1S)-1-[4-(4-methyl-1,3-thiazol-5-yl)phenyl]ethyl}carbamoyl)pyrrolidin-1-yl]-3,3-dimethyl-1-oxobutan-2-yl}carbamoyl)cyclobutyl]oxy}pyridin-3-yl)phenyl]-2,3,9-trimethyl-6H-thieno[3,2-f][1,2,4]triazolo[4,3-a] [1,4]diazepin-6-yl}acetate] | 0.3 | 0.37 |
| COC(=O)C[C@@H]1N=C(c2ccc(-c3ccc4cc(C(=O)N[C@H](C(=O)N5C[C@H](O)C[C@H]5C(=O)N[C@@H](C)c5ccc(-c6scnc6C)cc5)C(C)(C)C)oc4c3)cc2)c2c(sc(C)c2C)-n2c(C)nnc21 [Example 164, methyl [(6S)-4-{4-[2-({(2S)-1-[(2S,4R)-4-hydroxy-2-({(1S)-1-[4-(4-methyl-1,3-thiazol-5-yl)phenyl]ethyl}carbamoyl)pyrrolidin-1-yl]-3,3-dimethyl-1-oxobutan-2-yl}carbamoyl)-1-benzofuran-6-yl]phenyl}-2,3,9-trimethyl-6H-thieno[3,2-f][1,2,4]triazolo[4,3-a][1,4]diazepin-6-yl]acetate] | 0.066 | 0.077 |
| COC(=O)C[C@@H]1N=C(c2ccc(-c3ccc(O[C@H]4C[C@H](C(=O)N[C@H](C(=O)N5C[C@H](O)C[C@H]5C(=O)N[C@@H](C)c5ccc(-c6scnc6C)cc5)C(C)(C)C)C4)nc3)cc2)c2c(sc(C)c2C)-n2c(C)nnc21 [Example 165, methyl {(6S)-4-[4-(6-{[trans-3-({(2S)-1-[(2S,4R)-4-hydroxy-2-({(1S)-1-[4-(4-methyl-1,3-thiazol-5-yl)phenyl]ethyl}carbamoyl)pyrrolidin-1-yl]-3,3-dimethyl-1-oxobutan-2-yl}carbamoyl)cyclobutyl]oxy}pyridin-3-yl)phenyl]-2,3,9-trimethyl-6H-thieno[3,2-f][1,2,4]triazolo[4,3-a] [1,4]diazepin-6-yl}acetate] | 0.041 | 0.26 |
| COC(=O)C[C@@H]1N=C(c2ccc(-c3cncc(C(=O)N[C@H](C(=O)N4C[C@H](O)C[C@H]4C(=O)N[C@@H](C)c4ccc(-c5scnc5C)cc4)C(C)(C)C)n3)cc2)c2c(sc(C)c2C)-n2c(C)nnc21 [Example 167, methyl [(6S)-4-{4-[6-({(2S)-1-[(2S,4R)-4-hydroxy-2-({(1S)-1-[4-(4-methyl-1,3-thiazol-5-yl)phenyl]ethyl}carbamoyl)pyrrolidin-1-yl]-3,3-dimethyl-1-oxobutan-2-yl}carbamoyl)pyrazin-2-yl]phenyl}-2,3,9-trimethyl-6H-thieno[3,2-f][1,2,4]triazolo[4,3-a][1,4]diazepin-6-yl]acetate] | 0.28 | 0.14 |
